{
  "source": "patent US12303509B2",
  "about": "“Compounds for the treatment of BRAF-associated diseases and disorders” (Pfizer Inc., priority 2020, dated 2025)",
  "key": {"P-gp (MDR1)": {"target": "P-gp (MDR1) (Homo sapiens (Human), UniProt P08183)", "sequence (P08183 whole entry, species assumed)": "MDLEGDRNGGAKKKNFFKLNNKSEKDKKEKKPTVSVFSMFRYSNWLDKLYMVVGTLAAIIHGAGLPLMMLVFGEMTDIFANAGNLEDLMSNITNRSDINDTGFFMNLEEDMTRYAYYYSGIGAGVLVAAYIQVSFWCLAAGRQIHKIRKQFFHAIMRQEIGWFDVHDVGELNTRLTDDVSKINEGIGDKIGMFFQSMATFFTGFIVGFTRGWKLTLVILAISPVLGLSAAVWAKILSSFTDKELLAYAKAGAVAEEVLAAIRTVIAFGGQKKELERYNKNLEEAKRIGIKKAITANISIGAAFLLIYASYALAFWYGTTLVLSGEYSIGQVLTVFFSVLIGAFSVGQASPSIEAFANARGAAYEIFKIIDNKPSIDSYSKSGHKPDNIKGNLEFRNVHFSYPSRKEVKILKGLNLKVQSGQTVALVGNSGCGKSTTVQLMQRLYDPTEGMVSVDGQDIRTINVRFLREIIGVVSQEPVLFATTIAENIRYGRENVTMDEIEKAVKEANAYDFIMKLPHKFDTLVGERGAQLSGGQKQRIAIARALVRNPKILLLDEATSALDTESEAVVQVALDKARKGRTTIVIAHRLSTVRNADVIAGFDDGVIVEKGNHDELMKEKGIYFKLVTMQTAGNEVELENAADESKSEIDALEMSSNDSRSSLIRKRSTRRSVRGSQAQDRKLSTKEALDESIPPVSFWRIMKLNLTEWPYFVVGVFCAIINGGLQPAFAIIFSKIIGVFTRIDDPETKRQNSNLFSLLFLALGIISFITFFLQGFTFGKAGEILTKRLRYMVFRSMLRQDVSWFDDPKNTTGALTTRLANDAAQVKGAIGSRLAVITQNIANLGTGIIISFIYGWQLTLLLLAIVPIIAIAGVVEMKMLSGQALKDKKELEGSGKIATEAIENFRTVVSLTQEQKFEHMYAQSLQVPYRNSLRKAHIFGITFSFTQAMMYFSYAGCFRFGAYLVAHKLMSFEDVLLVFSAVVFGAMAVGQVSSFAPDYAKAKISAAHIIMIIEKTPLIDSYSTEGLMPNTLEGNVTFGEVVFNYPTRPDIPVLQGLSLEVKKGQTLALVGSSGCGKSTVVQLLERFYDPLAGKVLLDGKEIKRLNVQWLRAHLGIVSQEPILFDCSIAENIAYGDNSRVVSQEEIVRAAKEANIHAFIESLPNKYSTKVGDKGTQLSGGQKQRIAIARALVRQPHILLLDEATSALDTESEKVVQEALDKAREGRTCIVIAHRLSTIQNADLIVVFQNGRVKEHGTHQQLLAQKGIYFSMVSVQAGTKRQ", "experiment": "MDR1 LLC-PK1 permeability assay: efflux ratio", "format": "in vitro ADME", "details": "pig", "excerpt": "(§1) Final organic concentration in the assay was 1%."}, "BCRP": {"target": "BCRP (Homo sapiens (Human), UniProt Q9UNQ0)", "sequence (Q9UNQ0 whole entry)": "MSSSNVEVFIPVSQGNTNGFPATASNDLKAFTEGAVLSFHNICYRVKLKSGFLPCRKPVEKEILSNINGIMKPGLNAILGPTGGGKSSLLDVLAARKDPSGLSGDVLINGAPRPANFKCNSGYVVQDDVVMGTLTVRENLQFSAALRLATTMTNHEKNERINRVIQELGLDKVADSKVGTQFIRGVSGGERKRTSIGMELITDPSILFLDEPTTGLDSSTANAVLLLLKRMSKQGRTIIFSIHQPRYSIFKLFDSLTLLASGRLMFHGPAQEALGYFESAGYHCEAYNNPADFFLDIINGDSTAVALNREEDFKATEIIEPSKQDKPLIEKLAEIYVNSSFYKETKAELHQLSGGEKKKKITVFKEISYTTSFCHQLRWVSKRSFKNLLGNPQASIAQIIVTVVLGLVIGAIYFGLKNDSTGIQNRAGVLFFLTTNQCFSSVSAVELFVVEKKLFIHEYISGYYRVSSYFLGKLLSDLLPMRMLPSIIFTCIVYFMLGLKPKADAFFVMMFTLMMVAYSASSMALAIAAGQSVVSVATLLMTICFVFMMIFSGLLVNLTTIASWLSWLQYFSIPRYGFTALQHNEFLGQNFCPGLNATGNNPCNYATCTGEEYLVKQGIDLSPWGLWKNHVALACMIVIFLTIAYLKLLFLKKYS", "experiment": "BCRP MDCKII permeability assay: efflux ratio", "format": "in vitro ADME", "details": "dog", "method": "BCRP transfected MDCKII cells were cultured and plated according to manufacturer's recommendations. Assay conditions included with and without the BCRP-specific inhibitor, KO143, at a concentration of 0.3 μM to ascertain the contribution of BCRP to the efflux value of the test compound.\nBoth positive and negative controls were used to assess functionality of P-gp or BCRP efflux in the assays. […] Final organic concentration in the assay was 1%. All dosing solutions contained 10 μM lucifer yellow to monitor LLC-PK1 or MDCKII cell monolayer integrity.\nFor the apical to basolateral determination (A to B), 75 μL of the test article in transport buffer were added to the apical side of the individual transwells and 250 μL of basolateral media, without compound or lucifer yellow, were added to each well. For the basolateral to apical determination (B to A), 250 μL of test article in transport buffer were added to each well and 75 μL transport buffer, without compound or lucifer yellow, were added to each transwell. All tests were performed in triplicate, and each compound was tested for both apical to basolateral and basolateral to apical transport. The plates were incubated for 2 hours on a Lab-Line Instruments Titer Orbital Shaker (VWR, West Chester, PA) at 50 rpm and 37° C. with 5% CO2. All culture plates were removed from the incubator and 50 μL of media were removed from the apical and basolateral portion of each well and added to 150 μL of 1 μM labetalol in 2:1 acetonitrile (acetonitrile): H2O, v/v.\nThese values were accepted when found to be below 2% for apical to basolateral and 5% basolateral to apical flux across the MDR1-transfected LLC-PK1 or BCRP-transfected MDCKII cell monolayers. The plates were sealed and the contents of each well analyzed by LC-MS/MS. The compound concentrations were determined from the ratio of the peak areas of the compound to the internal standard (labetalol) in comparison to the dosing solution.\nThe LC-MS/MS system was comprised of an HTS-PAL autosampler (Leap Technologies, Carrboro, NC), an HP1200 HPLC (Agilent, Palo Alto, CA), and a MDS Sciex 4000 Q Trap system (Applied Biosystems, Foster City, CA). […] The total run time, including re-equilibration, for a single injection was 1.2 minutes. Mass spectrometric detection of the analytes was accomplished using the ion spray positive mode.\nAn efflux ratio is calculated from the mean apical to basolateral (A-B) Papp data and basolateral to apical (B-A) Papp data using the following equation: Efflux ratio=Papp(B-A)/Papp(A-B)"}, "H1755 cells": {"test_system": "H1755 cells", "experiment": "Cellular phospho-ERK inhibition assay in H1755 cells", "format": "cell-based", "details": "Homo sapiens, NCI-H1755, 2 hours treatment, read-out: H1755 Cell IC50", "method_in_brief": "(§2)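 In Cell Western detection of phospho-ERK1/2 (Thr202/Tyr204) over GAPDH after 2 h compound exposure (66 pM to 10 μM, 9 points, 0.25% DMSO) of A375 cells in DMEM or H1755 cells in RPMI, both with 10% FBS. Percent of control set by DMSO and 10 μM binimetinib; 4-parameter IC50.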"}, "[1]": {"target": "full-length FLAG-tagged B-Raf(V600E) (Homo sapiens (Human), UniProt P15056, V600E)", "sequence (P15056 whole entry V600E)": "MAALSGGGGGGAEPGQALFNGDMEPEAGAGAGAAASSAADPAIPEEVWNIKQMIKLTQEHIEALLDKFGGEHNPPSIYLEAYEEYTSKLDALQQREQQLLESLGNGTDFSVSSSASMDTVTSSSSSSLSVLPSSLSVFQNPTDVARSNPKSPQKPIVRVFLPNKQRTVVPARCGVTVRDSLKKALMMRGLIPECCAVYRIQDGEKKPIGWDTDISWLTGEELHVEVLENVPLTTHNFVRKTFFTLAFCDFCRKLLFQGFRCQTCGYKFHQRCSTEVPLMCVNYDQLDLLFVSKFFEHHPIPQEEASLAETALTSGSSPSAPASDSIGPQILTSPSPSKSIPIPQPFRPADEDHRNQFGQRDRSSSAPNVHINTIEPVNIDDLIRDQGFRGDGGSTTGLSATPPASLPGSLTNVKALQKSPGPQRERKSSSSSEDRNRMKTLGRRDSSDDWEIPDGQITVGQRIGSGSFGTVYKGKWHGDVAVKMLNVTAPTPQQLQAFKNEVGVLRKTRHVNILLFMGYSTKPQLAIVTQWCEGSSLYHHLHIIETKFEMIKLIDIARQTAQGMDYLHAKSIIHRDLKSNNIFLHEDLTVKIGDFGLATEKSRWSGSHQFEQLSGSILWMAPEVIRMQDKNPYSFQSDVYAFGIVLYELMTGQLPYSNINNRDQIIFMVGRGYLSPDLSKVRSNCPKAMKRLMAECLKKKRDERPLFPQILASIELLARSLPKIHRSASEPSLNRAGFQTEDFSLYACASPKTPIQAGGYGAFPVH", "experiment": "BRAF V600E enzyme assay (TR-FRET competitive displacement)", "format": "binding", "method_in_brief": "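TR-FRET tracer competition: compound (top dose 10 μM, 3-fold, 11 points) incubated 60 min at ambient temperature with FLAG-tagged full-length B-Raf(V600E) (5 nM), Eu anti-FLAG cryptate (0.5 nM) and tracer (50 nM), pH 7.4 HEPES/MgCl2 buffer. 665/615 ratio converted to percent of control; IC50 where fitted curve crosses 50 POC.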"}, "A375 cells": {"test_system": "A375 cells", "experiment": "Cellular phospho-ERK inhibition assay in A375 cells", "format": "cell-based", "details": "Homo sapiens, A-375, A375 cells (head prints A357), 2 hours treatment, read-out: A357 cell IC50", "method_in_brief": "as §2"}, "[2]": {"experiment": "MDR1 LLC-PK1 and BCRP MDCKII permeability assay: permeability coefficient (Papp)", "format": "in vitro ADME", "excerpt": "as §1"}, "[3]": {"details": "averaged IC50, TR-FRET tracer displacement, 60 min"}},
  "note": "Counter-ions that a name gives are not always drawn. Like-named read-outs stand apart in the source and are kept apart here.",
  "data": [
    {"compound": "Cn1cnc2ccc(Nc3c(F)c(F)cc(NS(=O)(=O)N4CCCC4)c3F)c(Cl)c2c1=O", "note": "[Example 43, N-(3-((5-chloro-3-methyl-4-oxo-3,4-dihydroquinazolin-6-yl)amino)-2,4,5-trifluorophenyl)pyrrolidine-1-sulfonamide trifluoroacetate]", "values": [
      {"measurement": "efflux ratio at 2 h, 1 µM", "setting": "P-gp (MDR1)", "result": 1.8},
      {"measurement": "efflux ratio at 2 h, 1 µM", "setting": "BCRP", "result": 1.9},
      {"measurement": "IC50", "setting": "H1755 cells", "result": 45, "unit": "nM"},
      {"measurement": "IC50", "setting": "[1]; [3]", "result": 1, "unit": "nM"},
      {"measurement": "IC50", "setting": "A375 cells", "result": 4, "unit": "nM"},
      {"measurement": "Papp at 2 h, 1 µM", "setting": "[2]", "result": 32, "unit": "×10⁻⁶ cm/s"}
    ]},
    {"compound": "CO[C@H]1CN(S(=O)(=O)Nc2ccc(F)c(Nc3ccc4ncn(C)c(=O)c4c3Br)c2Cl)C[C@H]1F", "note": "(relative stereo) [Example 16, cis-N-(3-((5-bromo-3-methyl-4-oxo-3,4-dihydroquinazolin-6-yl)amino)-2-chloro-4-fluorophenyl)-3-fluoro-4-methoxypyrrolidine-1-sulfonamide trifluoroacetate]", "values": [
      {"measurement": "efflux ratio at 2 h, 1 µM", "setting": "P-gp (MDR1)", "result": 5.9},
      {"measurement": "efflux ratio at 2 h, 1 µM", "setting": "BCRP", "result": 4.5},
      {"measurement": "IC50", "setting": "H1755 cells", "result": 43, "unit": "nM"},
      {"measurement": "IC50", "setting": "[1]; [3]", "result": 6, "unit": "nM"},
      {"measurement": "IC50", "setting": "A375 cells", "result": 7, "unit": "nM"},
      {"measurement": "Papp at 2 h, 1 µM", "setting": "[2]", "result": 29, "unit": "×10⁻⁶ cm/s"}
    ]},
    {"compound": "Cc1c(Nc2c(F)ccc(NS(=O)(=O)N3CC4CC4C3)c2Cl)ccc2ncn(C)c(=O)c12", "note": "(stereo not drawn) [Example 92, N-(2-chloro-3-((3,5-dimethyl-4-oxo-3,4-dihydroquinazolin-6-yl)amino)-4-fluorophenyl)-3-azabicyclo[3.1.0]hexane-3-sulfonamide]", "values": [
      {"measurement": "efflux ratio at 2 h, 1 µM", "setting": "P-gp (MDR1)", "result": 1.2},
      {"measurement": "efflux ratio at 2 h, 1 µM", "setting": "BCRP", "result": 1.9},
      {"measurement": "IC50", "setting": "H1755 cells", "result": 35, "unit": "nM"},
      {"measurement": "IC50", "setting": "[1]; [3]", "result": 8, "unit": "nM"},
      {"measurement": "IC50", "setting": "A375 cells", "result": 36, "unit": "nM"},
      {"measurement": "Papp at 2 h, 1 µM", "setting": "[2]", "result": 22, "unit": "×10⁻⁶ cm/s"}
    ]},
    {"compound": "CO[C@@H]1CCN(S(=O)(=O)Nc2cc(F)c(F)c(Nc3ccc4ncn(C)c(=O)c4c3C)c2Cl)C1", "note": "[Example 99, (R)-N-(2-chloro-3-((3,5-dimethyl-4-oxo-3,4-dihydroquinazolin-6-yl)amino)-4,5-difluorophenyl)-3-methoxypyrrolidine-1-sulfonamide]", "values": [
      {"measurement": "efflux ratio at 2 h, 1 µM", "setting": "P-gp (MDR1)", "result": 1.7},
      {"measurement": "efflux ratio at 2 h, 1 µM", "setting": "BCRP", "result": 1.4},
      {"measurement": "IC50", "setting": "H1755 cells", "result": 100, "unit": "nM"},
      {"measurement": "IC50", "setting": "[1]; [3]", "result": 5, "unit": "nM"},
      {"measurement": "IC50", "setting": "A375 cells", "result": 33, "unit": "nM"},
      {"measurement": "Papp at 2 h, 1 µM", "setting": "[2]", "result": 34, "unit": "×10⁻⁶ cm/s"}
    ]},
    {"compound": "Cn1cnc2ccc(Nc3c(F)c(F)cc(NS(=O)(=O)N4CC[C@@H](F)C4)c3F)c(Cl)c2c1=O", "note": "[Example 36, (R)-N-(3-((5-chloro-3-methyl-4-oxo-3,4-dihydroquinazolin-6-yl)amino)-2,4,5-trifluorophenyl)-3-fluoropyrrolidine-1-sulfonamide trifluoroacetate]", "values": [
      {"measurement": "efflux ratio at 2 h, 1 µM", "setting": "P-gp (MDR1)", "result": 2.9},
      {"measurement": "efflux ratio at 2 h, 1 µM", "setting": "BCRP", "result": 9.9},
      {"measurement": "IC50", "setting": "H1755 cells", "result": 61, "unit": "nM"},
      {"measurement": "IC50", "setting": "[1]; [3]", "result": 1, "unit": "nM"},
      {"measurement": "IC50", "setting": "A375 cells", "result": 5, "unit": "nM"},
      {"measurement": "Papp at 2 h, 1 µM", "setting": "[2]", "result": 25, "unit": "×10⁻⁶ cm/s"}
    ]},
    {"compound": "Cc1c(Oc2c(F)ccc(NS(=O)(=O)N3CC[C@@H](OC(F)F)C3)c2Cl)ccc2ncn(C)c(=O)c12.O=C(O)C(F)(F)F", "note": "[Example 57, (R)-N-(2-chloro-3-((3,5-dimethyl-4-oxo-3,4-dihydroquinazolin-6-yl)oxy)-4-fluorophenyl)-3-(difluoromethoxy)pyrrolidine-1-sulfonamide trifluoroacetate]", "values": [
      {"measurement": "efflux ratio at 2 h, 1 µM", "setting": "P-gp (MDR1)", "result": 0.9},
      {"measurement": "efflux ratio at 2 h, 1 µM", "setting": "BCRP", "result": 0.9},
      {"measurement": "IC50", "setting": "H1755 cells", "result": 61, "unit": "nM"},
      {"measurement": "IC50", "setting": "[1]", "result": 3, "unit": "nM"},
      {"measurement": "IC50", "setting": "A375 cells", "result": 27, "unit": "nM"},
      {"measurement": "Papp at 2 h, 1 µM", "setting": "[2]", "result": 25, "unit": "×10⁻⁶ cm/s"}
    ]},
    {"compound": "[2H]C([2H])([2H])O[C@@H]1CCN(S(=O)(=O)Nc2ccc(F)c(Nc3ccc4ncn(C)c(=O)c4c3F)c2Cl)C1", "note": "[Example 54, (R)-N-(2-chloro-4-fluoro-3-((5-fluoro-3-methyl-4-oxo-3,4-dihydroquinazolin-6-yl)amino)phenyl)-3-(methoxy-d3)pyrrolidine-1-sulfonamide trifluoroacetate]", "values": [
      {"measurement": "efflux ratio at 2 h, 1 µM", "setting": "P-gp (MDR1)", "result": 3.6},
      {"measurement": "efflux ratio at 2 h, 1 µM", "setting": "BCRP", "result": 3},
      {"measurement": "IC50", "setting": "H1755 cells", "result": 33, "unit": "nM"},
      {"measurement": "IC50", "setting": "[1]; [3]", "result": 17, "unit": "nM"},
      {"measurement": "IC50", "setting": "A375 cells", "result": 4, "unit": "nM"},
      {"measurement": "Papp at 2 h, 1 µM", "setting": "[2]", "result": 31, "unit": "×10⁻⁶ cm/s"}
    ]},
    {"compound": "CO[C@@H]1CCN(S(=O)(=O)Nc2cc(F)c(F)c(Nc3ccc4ncn(C)c(=O)c4c3Cl)c2F)C1", "note": "[Example 34, (R)-N-(3-((5-chloro-3-methyl-4-oxo-3,4-dihydroquinazolin-6-yl)amino)-2,4,5-trifluorophenyl)-3-methoxypyrrolidine-1-sulfonamide]", "values": [
      {"measurement": "efflux ratio at 2 h, 1 µM", "setting": "P-gp (MDR1)", "result": 2.9},
      {"measurement": "efflux ratio at 2 h, 1 µM", "setting": "BCRP", "result": 2.6},
      {"measurement": "IC50", "setting": "H1755 cells", "result": 54, "unit": "nM"},
      {"measurement": "IC50", "setting": "[1]; [3]", "result": 4, "unit": "nM"},
      {"measurement": "IC50", "setting": "A375 cells", "result": 4, "unit": "nM"},
      {"measurement": "Papp at 2 h, 1 µM", "setting": "[2]", "result": 30, "unit": "×10⁻⁶ cm/s"}
    ]}
  ]
}
